Some results are limits rather than exact numbers.

This assay has as its system Beta-TC6. In words: Increase in insulin release in mouse BetaTC6 cells assessed as relative insulin release activity at 10 uM incubated for 2 to 4 hrs by FRET based HTRF assay relative to sunitinib. The format is functional. For orientation: In TR-FRET formats the signal depends on donor and acceptor labels being close together.
Take `COc1ccc(-c2ccc3nnc(-c4ccc(OCCCN(C)C)cc4)n3c2)cc1OC`: the Activity was determined as 50%. Turning to `Oc1cccc(-c2cnc3cnc(-c4cc5ccccc5s4)cn23)c1`, the Activity came to 50%.

For `c1cc2cc(-c3ccc4nnc(-c5cscn5)n4c3)ccc2[nH]1`, the Activity was found to be 50%. In the case of `COc1cccc(C#Cc2ccc3nnc(-c4cccc(OC(F)(F)F)c4)n3c2)c1` it was 20%; in that of `CC(C(=O)Nc1cnc2cnc(-c3cccc([N+](=O)[O-])c3)cn12)c1ccccc1` (stereo unspecified), 20%; in that of `COc1ccc(-c2ccc3nnc(-c4ccncc4)n3c2)cc1OC`, 20%. To `Fc1ccc(-c2cn3c(-c4ccsc4)cnc3cn2)cc1Cl` belongs 20%; to `CN(C)c1ccc(-c2cnc3cnc(-c4cccc(C(N)=O)c4)cn23)cc1`, 20%; to `CN(C)CC#Cc1ccc2nnc(-c3ccccc3)n2c1`, 10%. In the case of `OCc1ccc(-c2ccc3nnc(-c4ccncc4)n3c2)cc1` it was 20%; in that of `O=C(Nc1cnc2cnc(-c3ccc4ccccc4c3)cn12)C1CCOC1` (stereo unspecified), 10%. Regarding `Nc1ccc(-c2cn3c(-c4cccs4)cnc3cn2)cn1`, the Activity was 20%. In the case of `C(#Cc1ccccn1)c1ccc2nnc(-c3ccccc3)n2c1`, the Activity was determined as 50%. To `Nc1cccc(-c2ccc3nnc(-c4cccc(Cl)c4)n3c2)c1` belongs 50%.

Regarding `Fc1cccc(-c2cn3c(-c4ccc5c(c4)OCO5)cnc3cn2)c1`, the Activity was 50%. In the case of `COc1ccc(-c2cn3c(-c4ccc(N(C)C)cc4)cnc3cn2)cn1`, the Activity is recorded as 50%. To `CC(=O)Nc1ccc(-c2cnc3ccc(-c4ccc(N5CCOCC5)cc4)nn23)cc1` belongs “>=100%”. To `CN(C)c1ccc(-c2cnc3cnc(-c4ccc(C(=O)N5CCOCC5)cc4)cn23)cc1` belongs 20%; to `COc1ccc(-c2cnc3ccc(NCc4ccccn4)nn23)cc1OC`, 20%; to `CN(C)CCCNC(=O)c1ccc(-c2ccc3nnc(-c4cccc(C(F)(F)F)c4)n3c2)cc1`, 20%. To `Clc1ccc(-c2cnc3cnc(-c4cccs4)cn23)cc1` belongs 20%. For the compound `CS(=O)(=O)Nc1cccc(-c2ccc3nnc(-c4ccccc4)n3c2)c1`, the Activity worked out at 50%. In the case of `CSc1ccc(-c2cnc3cccnn23)cc1` it was 10%. In the case of `CC(C)[C@@H](CO)Nc1ccc2ncc(-c3ccc(N)cc3)n2n1` it was 50%; in that of `c1ccc(-c2cnc3cnc(-c4cccs4)cn23)cc1`, 20%; in that of `COc1ccccc1CC(=O)Nc1cnc2cnc(-c3cccc(Cl)c3Cl)cn12`, 20%. In the case of `Clc1cccc(-c2cn3c(-c4ccc5c(c4)OCO5)cnc3cn2)c1` it was 50%. In the case of `Nc1ccc(-c2cn3c(-c4ccc5c(c4)OCO5)cnc3cn2)cn1`, the Activity is reported as 10%. For the compound `Oc1ccc(-c2cn3c(-c4cccs4)cnc3cn2)cc1`, the Activity was 50%.

As for `CC(=O)Nc1cccc(-c2ccc3nnc(-c4ccc5nccnc5c4)n3c2)c1`, the Activity stood at 50%. To `CN(C)CCCNC(=O)c1ccc(-c2cn3c(-c4ccc(N(C)C)cc4)cnc3cn2)cc1` belongs 50%; to `COc1ccc(-c2cnc3cnc(-c4ccc(N)nc4)cn23)cc1`, 20%; to `Oc1cccc(-c2nnc3ccc(-c4ccc(F)cc4)cn23)c1`, 50%. In the case of `Fc1ccc(-c2cnc3cnc(-c4ccco4)cn23)cc1Cl` it was 20%; in that of `Fc1cccc(-c2cnc3cnc(-c4ccccc4)cn23)c1`, 20%. On to `c1cc(-c2ccc3nnc(-c4ccc5c(c4)OCO5)n3c2)co1`, for which the Activity worked out at 50%. To `c1cnn2c(-c3ccc4c(c3)CCO4)cnc2c1` belongs 10%; to `CC(=O)Nc1cccc(-c2cnc3ccc(NCc4ccc(F)cc4)nn23)c1`, 10%. In the case of `N#Cc1ccc(-c2cnc3cnc(-c4cccs4)cn23)cc1` it was 20%; in that of `CN(C)CCNC(=O)c1cccc(-c2ccc3nnc(-c4ccc5nccnc5c4)n3c2)c1`, “>=100%”; in that of `OCc1ccc(-c2cnc3cnc(-c4ccc(Cl)cc4Cl)cn23)cc1`, 20%. To `Nc1cccc(-c2cn3c(NC(=O)Cc4ccc(F)c(F)c4)cnc3cn2)c1` belongs 10%; to `CC(=O)c1ccc(-c2cnc3cccnn23)cc1`, 10%; to `CC(C(=O)Nc1cnc2cnc(-c3ccc4c(c3)OCO4)cn12)c1ccccc1` (stereo unspecified), 20%. As for `COc1ccc(-c2ccc3nnc(-c4ccccc4C)n3c2)cc1OC`, the Activity turned out to be 50%.

`Oc1cccc(-c2ccc3ncc(-c4cccc(C(F)(F)F)c4)n3n2)c1`: the Activity is listed as 20%. In the case of `c1cncc(CCNc2ccc3ncc(-c4ccc5ccccc5c4)n3n2)c1` it was 10%; in that of `CN(C)/C(=C1\N=C(c2ccccc2)OC1=O)c1cnc2cccnn12`, 10%. To `Cn1cncc1C#Cc1ccc2nnc(-c3ccc4c(c3)OCO4)n2c1` belongs 20%.

On to `COc1cccc(-c2cn3c(-c4cccc(O)c4)cnc3cn2)c1F`, for which the Activity worked out at 20%. With `CC(=O)Nc1ccc(-c2ccc3nnc(-c4cccc(Cl)c4)n3c2)cc1`, the Activity came out at 20%. To `COc1cncc(-c2cnc3ccc(Cc4ccc(F)cc4)nn23)c1` belongs 20%. In the case of `COc1cc(CNc2ccc3ncc(-c4ccc(N(C)C)cc4)n3n2)cc(OC)c1OC` it was 10%; in that of `CN(C)c1ccc(-c2cnc3cnc(-c4cccc(NS(C)(=O)=O)c4)cn23)cc1`, 20%.

Consider `O=C(Nc1cnc2cnc(-c3cnn(Cc4ccccc4)c3)cn12)C1CCC1`, for which the Activity was 20%. To `Oc1cccc(-c2cnc3cnc(-c4cccc(Cl)c4)cn23)c1` belongs 20%. In the case of `CN(C)C(=O)c1cccc(-c2ccc3nnc(-c4ccc5nccnc5c4)n3c2)c1`, the Activity was 50%. Turning to `Nc1cccc(-c2cn3c(-c4cccc(F)c4)cnc3cn2)c1`, the Activity was 20%. In the case of `O=C(NC1CC1)c1ccc(-c2cnc3cccnn23)cc1` it was 10%; in that of `c1coc(-c2cn3c(-c4ccsc4)cnc3cn2)c1`, 20%; in that of `CN(C)c1ccc(-c2ccc3ncc(-c4ccc(CO)cc4)n3n2)cc1`, 50%.

For `COc1ccc(-c2nnc3ccc(-c4cccs4)cn23)cc1OC`, the Activity came out at 50%.

For `COc1ccc(-c2ccc3nnc(-c4ccoc4)n3c2)cc1`, the Activity is 50%. To `CC(=O)c1cccc(-c2cn3c(NC(=O)CC4CC4)cnc3cn2)c1` belongs 20%.

For `COc1ccccc1-c1ccc2ncc(-c3cccc(OC(F)(F)F)c3)n2n1`, the Activity came out at 10%. In the case of `COc1ccc(-c2cnc3ccc(NCCCO)nn23)c(OC)c1` it was 10%; in that of `O=C(NCCO)c1ccc(-c2cn3c(-c4cccs4)cnc3cn2)cc1`, 10%. To `CSc1ccc(-c2cn3c(-c4cccc(CO)c4)cnc3cn2)cc1` belongs 20%.

Consider `OCc1cccc(-c2cnc3ccc(-c4cccc(Oc5ccccc5)c4)nn23)c1`, for which the Activity came out at 20%. In the case of `CCOc1cccc(-c2cnc3cccnn23)c1` it was 10%; in that of `CN1CCN(C(=O)c2cccc(-c3cnc4cnc(-c5ccc(OC(F)(F)F)cc5)cn34)c2)CC1`, 20%; in that of `Cc1ccccc1-c1cnc2cnc(-c3cccs3)cn12`, 10%. To `Nc1ccc(-c2ccc3nnc(-c4cccc(C(F)(F)F)c4)n3c2)cn1` belongs 20%; to `CN(C)c1ccc(-c2cnc3cnc(-c4ccccc4Cl)cn23)cc1`, 20%; to `CN1CCN(C(=O)c2cccc(-c3cnc4cnc(-c5ccccc5Oc5ccccc5)cn34)c2)CC1`, 20%. To `c1ccc(-c2ccc3ncc(-c4ccc5c(c4)OCO5)n3n2)cc1` belongs 20%. With `COc1cncc(-c2ccc3nnc(-c4cccc(OC(F)(F)F)c4)n3c2)c1`, the Activity is 50%. To `COc1cc(-c2cnc3cnc(-c4ccc(N5CCN(C)CC5)nc4)cn23)ccc1O` belongs 20%; to `c1csc(-c2cn3c(-c4cccs4)cnc3cn2)c1`, 50%. To `CN(C)CCCOc1ccc(-c2cn3c(-c4cccc(N(C)C)c4)cnc3cn2)cn1` belongs 20%; to `Cc1ccc(CNc2ccc3ncc(-c4ccc(C(=O)NCCN(C)C)cc4)n3n2)c(C)c1`, 20%. Consider `NC(=O)c1ccc(-c2cnc3ccc(Cc4ccc(F)c(F)c4)nn23)cc1`, for which the Activity came to 20%.

Take `CN(C)c1cccc(-c2cn3c(NC(=O)c4ccccc4)cnc3cn2)c1`: the Activity is reported as 50%. Regarding `CN(C)c1cccc(-c2cnc3cnc(-c4ccsc4)cn23)c1`, the Activity was found to be 50%. To `O=C(NC1CC1)c1ccc(-c2cn3c(-c4ccccc4)cnc3cn2)cc1` belongs 20%; to `CCOc1cccc(-c2cn3c(-c4cccc(CO)c4)cnc3cn2)c1`, 20%. Regarding `COc1cc(-c2cnc3ccc(NCc4cccc(Cl)c4)nn23)ccc1O`, the Activity is reported as 20%. In the case of `COc1cccc(CC(=O)Nc2cnc3cnc(-c4ccccc4CN(C)C)cn23)c1` it was 20%. In the case of `CNc1ccc2ncc(/C=C\CCCO)n2n1` it was 10%.

Regarding `CN(C)c1cccc(-c2ccc3ncc(-c4cccs4)n3n2)c1`, the Activity is given as 20%. In the case of `CCOc1cccc(-c2cn3c(-c4ccc(O)c(OC)c4)cnc3cn2)c1` it was 50%; in that of `c1csc(-c2cn3c(-c4ccsc4)cnc3cn2)c1`, 50%. On to `Clc1cccc(-c2nnc3ccc(-c4ccoc4)cn23)c1`, for which the Activity is 50%.

In the case of `Brc1cnc2ccc(NCCCN3CCOCC3)nn12`, the Activity is 10%. `c1cc(-c2cn3c(-c4ccc5c(c4)OCO5)cnc3cn2)cs1`: the Activity is given as 50%. In the case of `O=C(O)CCc1ccc(-c2cnc3cnc(-c4ccccc4Cl)cn23)cc1` it was 50%.

Values taken from ChEMBL document CHEMBL3727361, “Nitrogen bicyclic compounds as inhibitors for Scyl1 and Grk5” (2014).
